Assay results from ChEMBL document CHEMBL3616373, “Identification of N-sulfonyl-tetrahydroquinolines as RORc inverse agonists” (Bioorg Med Chem Lett, 2015).

How the values were obtained:
[1] = biological target: T1, Nuclear receptor ROR-gamma (Homo sapiens, UniProt P51449); assay: Inverse agonist activity at N-terminal 6xHis-tagged human RORc ligand binding domain (241 to 486) expressed in bacterial expression system assessed as inhibition of SRC1 co-activator peptide recruitment after 3 hrs by TR-FRET analysis; assay type: functional
T1 sequence (P51449 whole entry): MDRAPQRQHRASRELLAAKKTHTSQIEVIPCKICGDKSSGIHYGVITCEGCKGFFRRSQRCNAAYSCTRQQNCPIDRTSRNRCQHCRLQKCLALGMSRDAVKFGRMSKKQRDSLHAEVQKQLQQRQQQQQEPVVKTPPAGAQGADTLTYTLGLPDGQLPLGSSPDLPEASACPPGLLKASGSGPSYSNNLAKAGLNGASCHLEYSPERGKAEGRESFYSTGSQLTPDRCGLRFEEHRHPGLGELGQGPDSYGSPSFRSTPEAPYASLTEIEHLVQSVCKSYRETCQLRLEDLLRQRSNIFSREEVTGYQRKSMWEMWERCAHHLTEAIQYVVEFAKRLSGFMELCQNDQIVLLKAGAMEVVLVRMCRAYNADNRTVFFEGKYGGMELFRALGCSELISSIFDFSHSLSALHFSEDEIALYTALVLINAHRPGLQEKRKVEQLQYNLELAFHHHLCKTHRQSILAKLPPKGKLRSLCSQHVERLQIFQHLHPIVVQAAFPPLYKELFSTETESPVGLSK

[2] = biological target: T2, Nuclear receptor ROR-gamma (Homo sapiens) (UniProt P51449); assay: Inverse agonist activity at N-terminal 6xHis-tagged human RORc ligand binding domain (241 to 486) expressed in bacterial expression system assessed as inhibition of SRC1 co-activator peptide recruitment after 3 hrs by TR-FRET analysis relative to apo-RORc ligand binding domain
T2 sequence (whole entry): T1 sequence (P51449 whole entry)

[3] = biological target: T1, Nuclear receptor ROR-gamma; assay: Displacement of [3H2]-25-hydroxycholesterol from N-terminal 6xHis-tagged human RORc ligand binding domain (241 to 486) expressed in bacterial expression system after 3 hrs by scintillation counting analysis

| SMILES | EC50 [1] | Efficacy [2] | IC50 [3] |
| --- | --- | --- | --- |
| Cc1ccccc1C(=O)Nc1ccc2c(c1)N(S(=O)(=O)c1ccc(F)cc1)CCC2 | 0.12 µM | -80% | – |
| O=C(Nc1ccc2c(c1)CCCCN2S(=O)(=O)c1ccc(F)cc1)c1c(F)cccc1F | > 10 µM | – | – |
| O=C(Nc1ccc2c(c1)N(C(=O)c1ccccc1)CCC2)c1c(F)cccc1F | > 10 µM | – | – |
| O=C(Nc1ccc2c(c1)CCCN2S(=O)(=O)c1ccc(F)cc1)c1c(F)cccc1F | > 10 µM | – | – |
| O=C(Nc1ccc2c(c1)N(S(=O)(=O)c1ccc(F)cc1)CCC2)c1ccccc1 | 0.55 µM | -89% | – |
| O=C(Nc1ccc2c(c1)CCN2S(=O)(=O)c1ccc(F)cc1)c1c(F)cccc1F | > 10 µM | – | – |
| O=C(Nc1ccc2c(c1)N(S(=O)(=O)c1ccc(F)cc1)CCC2)C1CC1 | 3.6 µM | -63% | – |
| O=C(Nc1ccc2c(c1)N(S(=O)(=O)c1ccc(F)cc1)CCC2)c1cnccn1 | > 10 µM | – | – |
| O=C(Nc1ccc2c(c1)N(S(=O)(=O)c1ccc(F)cc1)CCC2)c1cccc(F)c1 | 0.47 µM | -69% | – |
| Cc1ccc(S(=O)(=O)N2CCCc3ccc(NC(=O)c4c(F)cccc4F)cc32)cc1 | 0.15 µM | -95% | 0.11 µM |
| O=C(Nc1ccc2c(c1)N(S(=O)(=O)c1cccs1)CCC2)c1c(F)cccc1F | 2.1 µM | -77% | 1.1 µM |
| O=C(Nc1ccc2c(c1)N(S(=O)(=O)c1ccc(F)cc1)CCC2)c1ccno1 | 7.4 µM | -54% | – |
| O=C(Nc1ccc2c(c1)N(S(=O)(=O)c1ccccc1)CCC2)c1c(F)cccc1F | 0.23 µM | -91% | 0.18 µM |
| O=C(Nc1ccc2c(c1)N(S(=O)(=O)c1ccc(F)cc1)CCCC2)c1c(F)cccc1F | 0.23 µM | -96% | – |
| O=C(Nc1ccc2c(c1)N(S(=O)(=O)c1ccc(F)cc1)CCC2)c1ccc(F)cc1 | 1.7 µM | -75% | – |
| CC(=O)Nc1ccc2c(c1)N(S(=O)(=O)c1ccc(F)cc1)CCC2 | > 10 µM | – | – |
| O=S(=O)(Nc1ccc2c(c1)N(S(=O)(=O)c1ccc(F)cc1)CCC2)c1ccccc1 | 0.57 µM | -77% | – |
| O=C(Nc1ccc2c(c1)N(S(=O)(=O)c1ccc(F)cc1)CCC2)c1ccncc1 | 6.8 µM | -58% | – |
| CS(=O)(=O)N1CCCc2ccc(NC(=O)c3c(F)cccc3F)cc21 | > 10 µM | – | – |
| O=C(Nc1ccc2c(c1)N(S(=O)(=O)c1ccc(F)cc1)CCC2)c1ccccc1F | 0.42 µM | -81% | – |
